Reference: patent publication US20170202939A1, “PERSONALIZED CANCER VACCINES AND METHODS THEREFOR” (Washington University, priority 2014, published 2017)
No end group written: not given here.

Target: T1, soluble HLA-A*02:01 from TMC expressing A375 melanoma cells (Homo sapiens, UniProt P04439, D140Y/D185E/D98H/E176V/E277Q/G131W/G231S/I119V/I121R/I166T/I218V/L300P/L318F/N151K/N90K/P208A/P217A/Q86G/Q94H/R138H/R169H/T345S)
T1 construct: TMC expressing A375 melanoma cells were transfected with soluble HLA-A*02:01(sHLA-A*02:01); expressed in transfected cells; host or cells: A375 melanoma cells expressing the MEL218 AAS tandem mini-gene construct
Experiment: proteomic analysis (RP-HPLC, LC/MS) of peptides eluted from soluble HLA-A*02:01
Conditions: A375 melanoma cells expressing MEL218 TMC
Protocol: To validate neoantigen processing and presentation, proteomic analysis was performed on peptides eluted from soluble HLA-A*02:01 molecules isolated from melanoma cells expressing a TMC encoding AAS candidates from patient MEL218 tumor (Sercarz, E. E., et al., Annu. Rev. Imunol., 11, 729-766, 1993; Assarsson, E., et al., J. Immunol., 178, 7890-7901, 2007). TMC expressing A375 melanoma cells were transfected with soluble HLA-A*02:01(sHLA-A*02:01) and single cell sorted for a high (>1000 ng/ml in static culture) sHLAA*02:01 producing clone. The sHLA-A*02:01 construct includes a C-terminal VLDLr epitope purification tag ([…] ID NO. 32) that is recognized by the anti-VLDLr mAb (ATCC CRL-2197). This antibody was also used for quantification of sHLA production as the capture antibody in a sandwich ELISA, with an antibody directed against β2-microglobulin (Dako Cytomation) as the detector antibody. Cells were grown in roller bottles and sHLA/peptide complexes were purified from supernatants by affinity chromatography with the anti-VLDLr antibody (Kaabinejadian, S., et al., P.L.o.S. One, 8, e66298, 2013). Eluate fractions containing sHLA/peptide complexes were brought to a final acetic acid concentration of 10%, pooled, and heated to 78° C. in a water bath. Peptides were purified through a 3 kDa molecular weight cutoff cellulose membrane (EMD Millipore) and lyophilized.
Synthetic peptides corresponding to the mutant sequences were resuspended in 10% acetic acid in water at 1 μM, and fractionated by RP-HPLC with an acetonitrile gradient in 10 mM ammonium formate at pH 10. Peptide-containing fractions were dried and resuspended in 25 ul of 10% acetic acid and subjected to nanoscale RP-HPLC at pH 2.5 utilizing an Eksigent nanoLC coupled to a TripleTOF 5600 (AB Sciex) quadrupole time-of-flight mass spectrometer (LC/MS). Information dependent acquisition (IDA) was used to obtain MS and MS/MS fragment spectra for peptide ions. The sequence of each peptide was determined by observed mass and fragment ions, and the 1st dimension fraction number and LC/MS retention times were recorded.
Next, peptides purified from TMC expressing A375 melanoma cells were resuspended in 10% acetic acid and HPLC fractionated under the same conditions and gradient method. Reverse phase HPLC was used to reduce the complexity and determine the elution profile of the pool of soluble HLA-A*02:01 restricted peptides presented by melanoma cells, as well as, the synthetic AAS peptide mixture. FIGS. 40A and 40E illustrate RP-HPLC fractionation of HLA-A*02:01 peptides eluted from the AAS-TMC expressing melanoma cell line (solid trace) and the synthetic peptide mixture containing MEL218 neoantigen candidates (dashed trace), with fraction 50 (FIG. 40A) and fraction 44 (FIG. 40E) indicated. […]

Row | Sequence | HLA-A*02:01 presentation by LC/MS of eluted peptides
1 | IILVAVPHV | confirmed HLA-A*02:01 presentation
2 | MLGEQLFPL | demonstrated the HLA-A*02:01 presentation
